Test results published in ChEMBL document CHEMBL1201862, “PubChem BioAssay data set” (2004).
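Values below derive from 48-hour exposures of cells grown in 96-well plates, with endpoints linearly interpolated between the two concentrations bracketing the appropriate inhibition level. GI50 = concentration required for 50% inhibition of growth.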 Activity calls are given as the source filed them. No stated cut-off is given here; in the data, active = GI50 up to about 1.1 µM and inactive = higher.

Tests used:
Assay in all cases: growth of human tumour cells (NCI), 48 h
MDA-N = test system: MDA-N
ACHN = test system: ACHN
SF-295 = test system: SF-295
PC-3 = test system: PC-3
SNB-75 = test system: SNB-75
OVCAR-4 = test system: OVCAR-4
OVCAR-8 = test system: OVCAR-8
IGROV-1 = test system: IGROV-1
MCF7 = test system: MCF7
SW-620 = test system: SW-620
A549 = test system: A549
DU-145 = test system: DU-145
COLO 205 = test system: COLO 205
RPMI-8226 = test system: RPMI-8226
Malme-3M = test system: Malme-3M
NCI/ADR-RES = test system: NCI/ADR-RES
CAKI-1 = test system: CAKI-1
EKVX = test system: EKVX
A498 = test system: A498
MDA-MB-231 = test system: MDA-MB-231
LOX IMVI = test system: LOX IMVI
SF-539 = test system: SF-539
KM12 = test system: KM12
SR = test system: SR
SK-MEL-5 = test system: SK-MEL-5
SK-MEL-28 = test system: SK-MEL-28
NCI-H23 = test system: NCI-H23
OVCAR-3 = test system: OVCAR-3
SNB-19 = test system: SNB-19
MDA-MB-435 = test system: MDA-MB-435
OVCAR-5 = test system: OVCAR-5
UACC-257 = test system: UACC-257
K562 = test system: K562
U-251 = test system: U-251
TK-10 = test system: TK-10
RXF 393 = test system: RXF 393
UO-31 = test system: UO-31
CCRF-CEM = test system: CCRF-CEM
M14 = test system: M14
T47D = test system: T47D
HCC 2998 = test system: HCC 2998
HCT-116 = test system: HCT-116
HL-60 = test system: HL-60
SK-MEL-2 = test system: SK-MEL-2
SK-OV-3 = test system: SK-OV-3
SN12C = test system: SN12C
NCI-H226 = test system: NCI-H226
HT-29 = test system: HT-29
Hs-578T = test system: Hs-578T
NCI-H522 = test system: NCI-H522
786-0 = test system: 786-0
HOP-92 = test system: HOP-92
HCT-15 = test system: HCT-15
MOLT-4 = test system: MOLT-4
HOP-62 = test system: HOP-62
SF-268 = test system: SF-268

N#CC1=C(N)N2C(=O)/C(=C/c3ccccc3O)N=C2S1 was tested, and the GI50 (MDA-N) was 86.3 µM (inactive), the GI50 (ACHN) was > 100 µM (inactive) and the GI50 (SF-295) was > 100 µM (inactive). The GI50 (PC-3) was > 100 µM (inactive), the GI50 (SNB-75) was 32.9 µM (inactive) and the GI50 (OVCAR-4) was 44.5 µM (inactive). For the same molecule, the GI50 (OVCAR-8) was > 100 µM (inactive), the GI50 (IGROV-1) was 29.8 µM (inactive) and the GI50 (MCF7) was 48.1 µM (inactive). The GI50 (SW-620) was > 100 µM (inactive), the GI50 (A549) was > 100 µM (inactive) and the GI50 (DU-145) was > 100 µM (inactive). The GI50 (COLO 205) was > 100 µM (inactive), the GI50 (RPMI-8226) was 30.6 µM (inactive) and the GI50 (Malme-3M) was > 100 µM (inactive). For the same molecule, the GI50 (NCI/ADR-RES) was > 100 µM (inactive), the GI50 (CAKI-1) was 51.5 µM (inactive) and the GI50 (EKVX) was 51.9 µM (inactive). For the same molecule, the GI50 (A498) was > 100 µM (inactive), the GI50 (MDA-MB-231) was > 100 µM (inactive) and the GI50 (LOX IMVI) was 53.2 µM (inactive). The GI50 (SF-539) was 28.8 µM (inactive), the GI50 (KM12) was > 100 µM (inactive) and the GI50 (SR) was 23.6 µM (inactive). The GI50 (SK-MEL-5) was 80 µM (inactive), the GI50 (SK-MEL-28) was > 100 µM (inactive) and the GI50 (NCI-H23) was 95.3 µM (inactive). For the same molecule, the GI50 (OVCAR-3) was 66.2 µM (inactive), the GI50 (SNB-19) was > 100 µM (inactive) and the GI50 (MDA-MB-435) was > 100 µM (inactive). The GI50 (OVCAR-5) was 98.9 µM (inactive), the GI50 (UACC-257) was > 100 µM (inactive) and the GI50 (K562) was 26.1 µM (inactive). The GI50 (U-251) was > 100 µM (inactive), the GI50 (TK-10) was > 100 µM (inactive) and the GI50 (RXF 393) was 93.3 µM (inactive). For the same molecule, the GI50 (UO-31) was 94.6 µM (inactive), the GI50 (CCRF-CEM) was 26.4 µM (inactive) and the GI50 (M14) was 49.9 µM (inactive). For the same molecule, the GI50 (T47D) was > 100 µM (inactive), the GI50 (HCC 2998) was 92.9 µM (inactive) and the GI50 (HCT-116) was 68.1 µM (inactive). For the same molecule, the GI50 (HL-60) was 20.8 µM (inactive), the GI50 (SK-MEL-2) was > 100 µM (inactive) and the GI50 (SK-OV-3) was > 100 µM (inactive). For the same molecule, the GI50 (SN12C) was > 100 µM (inactive), the GI50 (NCI-H226) was > 100 µM (inactive) and the GI50 (HT-29) was 37.7 µM (inactive). The GI50 (Hs-578T) was 31.3 µM (inactive), the GI50 (NCI-H522) was 47.8 µM (inactive) and the GI50 (786-0) was > 100 µM (inactive). For the same molecule, the GI50 (HOP-92) was > 100 µM (inactive), the GI50 (HCT-15) was 33.5 µM and the GI50 (MOLT-4) was 18.5 µM (inactive). For the same molecule, the GI50 (HOP-62) was > 100 µM (inactive) and the GI50 (SF-268) was 41.1 µM (inactive).
